Values of other authors in patent US6447807B1, “Potassium (-)-hydroxycitric acid methods for pharmaceutical preparations for stable and controlled delivery” (priority 1999, dated 2002).

Conditions: single large oral dose, or two divided oral doses totaling one fourth of it; animals fed a high-sugar diet

Question: With `O=C(O)CC(O)(C(=O)O)C(O)C(=O)O` (single isomer, unassigned; (-)) [HCA, (−)-Hydroxycitric acid] as the compound, how does the “reduction in food consumption” value read?
Answer: ≥ 10%
